Data set [1] has as its system LDL. Particulars: oral vitamin E supplementation; cited from earlier work.
The conditions of data set [2]: background statement; cited from earlier work.
Data set [3] relates to LDL. As to conditions: in vitro and in vivo; cited from earlier work.
Data set [4] in a line: Oxidation potential by cyclic voltammetry.
Data set [5] has as its system HMG-CoA reductase. As to the kind of experiment: HMG-CoA reductase suppression (specific activity) in microsomal fraction of treated HepG2 cells. Type of data set: cell-based, human. Particulars: 10 μM, 4 h incubation. Here is the method:
(§1) The human hepatoma HepG2 cell culture model was employed to compare the intrinsic activities of the synthetic analogues relative to the tocotrienols. HepG2 cells were incubated with the indicated compounds for 4 hours at 10 μM. Cholesterol synthesis was assayed by ^14 C-acetate incorporation over the final hour of incubation, and HMG-CoA reductase suppression (specific activity) was assayed in the microsomal fraction isolated from parallel cultures at the end of the 4 hour incubation. […] (Table I)

Another data set deals with HepG2 cells. As to the kind of experiment: Cholesterol biosynthesis, 14C-acetate incorporation in HepG2 cells. The format is cell-based. As to conditions: Homo sapiens, 4 h incubation, 14C-acetate incorporation over final hour, read-out: Chol. Biosynthesis. The procedure:
as §1

Data set [6] deals with normocholesterolemic chickens. Nature of the data set: Serum lipids (total, LDL and HDL cholesterol) in normocholesterolemic male chickens. Type of data set: in vivo, chicken. As to conditions: orally dosed for 4 weeks at 4 mg/kg/day. The procedure:
(§2) Hypocholesterolemic activity was evaluated for the synthetic analogues using γ-tocotrienol as a control in normocholesterolemic chickens. Newborn male chicks (6-10 for each group) were raised on a standard corn-soybean-based control diet for two weeks and then were switched to either control or experimental diets for four weeks. Drug treatment consisted of the addition of test compound to the corn-soybean-based. At the end of the feeding period, all the birds were fasted (about 36 hours) and refed (about 48 hours) to induce cholesterolgenic enzymes prior to sacrifice. The specific activity of HMG-CoA reductase, total serum cholesterol levels, HDL/LDL cholesterol pools, and triglyceride levels (data not shown) were examined (Table II).
(§3) Effects of Compound 3 on Lipid Parameters in Male Chickens
(§4) Orally dosed for 4-weeks at 4 mg/kg/day

Data set [7] has as its system HMG-CoA reductase. Nature of the data set: HMG-CoA reductase specific activity in normocholesterolemic male chickens. The format is in vivo, chicken. As to conditions: orally dosed for 4 weeks at 4 mg/kg/day. The procedure:
as §2, §3, §4

The subject of data set [8] is LDL. As to the kind of experiment: In vitro copper-mediated LDL oxidation, conjugated diene lag time extension. As to conditions: 10 μM incubated with rabbit plasma, isolated LDL, added Cu++; lag time ratio treated/control.

As to vitamin E, in the data set with LDL [1], the “antioxidant effectiveness, variation between subjects” value is recorded as “varied considerably from subject to subject” and the “oxidative resistance of LDL” value was “significantly enhanced”.
As for `CC(C)(Sc1cc(C(C)(C)C)c(O)c(C(C)(C)C)c1)Sc1cc(C(C)(C)C)c(O)c(C(C)(C)C)c1` [PROBUCOL, 4,4'-[(1-methylethylidene)bis(thio)]bis[2,6-bis(1,1-dimethylethyl)]], in data set [2], the bioavailability result was “suffers from bioavailability problems”. Moreover, the “oxidative modification of LDL” value in the data set on LDL [3] is “inhibits the oxidative modification of LDL both in vitro and in vivo”. Besides, the “Oxd. Potential” value in data set [4] was determined as 1.12 Volts.
With `CC(C)=CCC/C(C)=C/CC/C(C)=C/CCC1(C)CCc2cc(O)c(C)c(C)c2O1` (centres unmarked) [γ-Tocotrienol], the “HMGR Suppression” value in the data set on HMG-CoA reductase [5] is recorded as 65% of Control. Also, the activity at 10 µM with HepG2 cells turned out to be 75%. In data set [6], the HDL-C is reported as 87.0 % of Control and the LDL-C is 54.8 % of Control. The “Oxd. Potential” value in data set [4] came to 0.94 Volts.
As to `CC(C)=CCC/C(C)=C/CC/C(C)=C/CCSCC1=CC(C)(C)N([O])C1(C)C` [Compound 3, 2,5-Dihydro-2,2,5,5-Tetramethyl-3-[[(4,8,12-Trimethyl-3(E),7(E),11-Tridecatrienyl)thio]methyl]-1H-Pyrrole N-Oxide Radical], in the data set with HMG-CoA reductase [5], the “HMGR Suppression” value is 45% of Control. Moreover, the activity at 10 µM with HepG2 cells came to 5%. Moreover, in data set [6], the HDL-C is on record as 85.8 % of Control and the LDL-C was 52.8 % of Control. In data set [6] (total serum cholesterol), the Tot.-C is recorded as 72.0 % of Control. Further, the “Oxd. Potential” value in data set [4] amounted to 0.65 Volts. Also, the HMGR in the data set with HMG-CoA reductase [7] is 56.0 % of Control. The “LDL Oxd. Inhib. mean lag ratio” value with LDL [8] is 0.97.
Turning to `Cc1c(C)c2c(c(C)c1O)CCC(C)(CCCC(C)CCCC(C)CCCC(C)C)O2` (stereo not drawn) [α-Tocopherol], the “Oxd. Potential” value in data set [4] worked out at 0.81 Volts.
For `CC(C)=CCC/C(C)=C/CC/C(C)=C/CCCOc1ccc2c(c1)C(C)=CC(C)(C)N2[O]` [Compound 5, 1,2 -Dihydro-2,2,4-Trimethyl-6-[(5,9,13 -Trimethyl-4(E),8(E),12-tetradecatrienyl)oxy]Quinoline N-Oxide Radical], the activity at 10 µM with HepG2 cells worked out at 72%.

The record behind these values is patent US5391765A, “Cholesterol lowering/antioxidant nitroxides” (Bristol-Myers Squibb Company, priority 1993, dated 1995).
